What was measured:
[1] = single oral doses of NPS R-568 in a healthy post-menopausal person; format: in vivo, human
Description: A range of single oral doses was used to assess safety, tolerance, and changes in primary hyperparathyroidism markers (e.g., plasma concentrations of parathyroid hormone and ionized serum calcium) and of serum calcitonin.

[2] = hypocalcemic response in thyroidectomized rats; format: in vivo, rat; settings: 3 to 100 mg/kg p.o.
Description: In subsequent studies, rats received a thyroidectomy (parathyroid glands intact). This surgical procedure effectively removed the C-cells secreting calcitonin and therefore enabled the relative contributions of PTH and calcitonin to the hypocalcemic effect of this compound to be determined. […] The only difference was that the rate of onset of the hypocalcemic response was somewhat delayed in thyroidectomized animals. […] Stimulatory effects of this compound on calcitonin secretion increases the rate of onset, but not the extent, of hypocalcemia.

human parathyroid cells = experiment: PTH secretion from human parathyroid cells; format: cell-based
Protocol: PTH secretion was measured by first suspending cells in PCB containing 0.5 mM CaCl2 and 0.1% BSA.
For human cells, a commercially available radioimmunoassay kit (INS-PTH; Nichols Institute, Los Angeles, Calif.) which recognizes intact and N-terminal human PTH was used because GW-1 antibody recognizes human PTH poorly.

[3] = target: T1, parathyroid cell calcium receptor (Homo sapiens, UniProt P41180); experiment: [Ca^2+]i (fura-2) in human parathyroid cells; format: cell-based
T1 construct: Dissociated parathyroid cells were prepared from a parathyroid adenoma obtained by surgery from a patient with primary hyperparathyroidism; endogenous in cells; host or cells: primary dissociated human parathyroid cells (adenoma or hyperplastic tissue from surgery)
T1 sequence (P41180 20-1078): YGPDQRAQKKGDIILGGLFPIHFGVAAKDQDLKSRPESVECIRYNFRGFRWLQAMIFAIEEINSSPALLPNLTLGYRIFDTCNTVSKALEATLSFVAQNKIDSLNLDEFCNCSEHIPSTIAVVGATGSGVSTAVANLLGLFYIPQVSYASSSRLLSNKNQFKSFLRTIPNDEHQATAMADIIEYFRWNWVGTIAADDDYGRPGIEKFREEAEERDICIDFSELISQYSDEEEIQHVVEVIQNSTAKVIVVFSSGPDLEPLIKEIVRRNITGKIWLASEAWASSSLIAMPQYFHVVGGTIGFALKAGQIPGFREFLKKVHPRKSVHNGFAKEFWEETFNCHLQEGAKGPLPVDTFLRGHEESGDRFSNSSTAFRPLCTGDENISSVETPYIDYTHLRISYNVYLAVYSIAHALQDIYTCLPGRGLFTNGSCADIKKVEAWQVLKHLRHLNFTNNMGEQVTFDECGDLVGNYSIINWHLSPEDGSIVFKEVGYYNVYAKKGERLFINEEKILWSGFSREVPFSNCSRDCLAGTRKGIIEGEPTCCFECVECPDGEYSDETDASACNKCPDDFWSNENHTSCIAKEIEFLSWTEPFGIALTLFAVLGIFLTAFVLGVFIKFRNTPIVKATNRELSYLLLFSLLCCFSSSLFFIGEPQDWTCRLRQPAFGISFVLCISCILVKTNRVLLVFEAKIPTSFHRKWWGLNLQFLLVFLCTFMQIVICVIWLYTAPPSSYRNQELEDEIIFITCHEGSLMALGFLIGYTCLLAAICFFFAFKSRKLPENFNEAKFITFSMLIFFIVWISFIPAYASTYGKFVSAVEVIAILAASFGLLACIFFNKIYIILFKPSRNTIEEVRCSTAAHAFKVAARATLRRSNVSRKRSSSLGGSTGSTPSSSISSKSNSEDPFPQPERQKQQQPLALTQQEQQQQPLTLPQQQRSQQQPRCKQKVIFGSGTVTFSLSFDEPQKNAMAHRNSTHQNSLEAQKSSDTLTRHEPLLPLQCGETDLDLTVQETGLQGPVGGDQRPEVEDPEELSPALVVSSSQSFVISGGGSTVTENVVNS
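Wherever Serum Calcitonin is given: serum calcitonin in pg/mL.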
Protocol: This section describes procedures used to obtain and treat parathyroid cells from calves and humans. […] Human parathyroid glands, were obtained from patients undergoing surgical removal of parathyroid tissue for primary or uremic hyperparathyroidism (uremic HPT), and were treated similarly to bovine tissue.
Dissociated parathyroid cells were prepared from a parathyroid adenoma obtained by surgery from a patient with primary hyperparathyroidism.

Structure (SMILES): COc1cccc([C@@H](C)NCCCc2ccccc2Cl)c1 [NPS R-568, (R)-(+)-N-[3-(2-chlorophenyl)propyl]-α-methyl-3-methoxybenzylamine]
- Serum Calcitonin ([1]; 20 mg oral, 0 h): 3.2 pg/mL
- Serum Ionized Calcium ([1]; 20 mg oral, 0 h): 1.26 mM
- Serum PTH ([1]; 20 mg oral, 0 h): 31 pg/mL
- Serum Calcitonin ([1]; 20 mg oral, 0.5 h): 3.8 pg/mL
- Serum Ionized Calcium ([1]; 20 mg oral, 0.5 h): 1.26 mM
- Serum PTH ([1]; 20 mg oral, 0.5 h): 23 pg/mL
- Serum Calcitonin ([1]; 20 mg oral, 1 h): 3.2 pg/mL
- Serum Ionized Calcium ([1]; 20 mg oral, 1 h): 1.26 mM
- Serum PTH ([1]; 20 mg oral, 1 h): 18 pg/mL
- Serum Calcitonin ([1]; 20 mg oral, 2 h): 4.5 pg/mL
- Serum Ionized Calcium ([1]; 20 mg oral, 2 h): 1.26 mM
- Serum PTH ([1]; 20 mg oral, 2 h): 24 pg/mL
- Serum Calcitonin ([1]; 20 mg oral, 4 h): 4.2 pg/mL
- Serum Ionized Calcium ([1]; 20 mg oral, 4 h): 1.26 mM
- Serum PTH ([1]; 20 mg oral, 4 h): 34 pg/mL
- Serum Calcitonin ([1]; 20 mg oral, 8 h): 3.9 pg/mL
- Serum Ionized Calcium ([1]; 20 mg oral, 8 h): 1.26 mM
- Serum PTH ([1]; 20 mg oral, 8 h): 34 pg/mL
- Serum Calcitonin ([1]; 20 mg oral, 12 h): 3.2 pg/mL
- Serum Ionized Calcium ([1]; 20 mg oral, 12 h): 1.23 mM
- Serum PTH ([1]; 20 mg oral, 12 h): 48 pg/mL
- Serum Calcitonin ([1]; 20 mg oral, 24 h): 3.6 pg/mL
- Serum Ionized Calcium ([1]; 20 mg oral, 24 h): 1.29 mM
- Serum PTH ([1]; 20 mg oral, 24 h): 32 pg/mL
- Serum Calcitonin ([1]; 240 mg oral, 0 h): 5.8 pg/mL
- Serum Ionized Calcium ([1]; 240 mg oral, 0 h): 1.26 mM
- Serum PTH ([1]; 240 mg oral, 0 h): 29 pg/mL
- Serum Calcitonin ([1]; 240 mg oral, 0.5 h): 4.8 pg/mL
- Serum Ionized Calcium ([1]; 240 mg oral, 0.5 h): 1.26 mM
- Serum PTH ([1]; 240 mg oral, 0.5 h): 18 pg/mL
- Serum Calcitonin ([1]; 240 mg oral, 1 h): 6.5 pg/mL
- Serum Ionized Calcium ([1]; 240 mg oral, 1 h): 1.25 mM
- Serum PTH ([1]; 240 mg oral, 1 h): 6 pg/mL
- Serum Calcitonin ([1]; 240 mg oral, 2 h): 7.5 pg/mL
- Serum Ionized Calcium ([1]; 240 mg oral, 2 h): 1.23 mM
- Serum PTH ([1]; 240 mg oral, 2 h): 6 pg/mL
- Serum Calcitonin ([1]; 240 mg oral, 4 h): 6.1 pg/mL
- Serum Ionized Calcium ([1]; 240 mg oral, 4 h): 1.19 mM
- Serum PTH ([1]; 240 mg oral, 4 h): 10 pg/mL
- Serum Calcitonin ([1]; 240 mg oral, 8 h): 4.7 pg/mL
- Serum Ionized Calcium ([1]; 240 mg oral, 8 h): 1.16 mM
- Serum PTH ([1]; 240 mg oral, 8 h): 27 pg/mL
- Serum Calcitonin ([1]; 240 mg oral, 12 h): 5.3 pg/mL
- Serum Ionized Calcium ([1]; 240 mg oral, 12 h): 1.18 mM
- Serum PTH ([1]; 240 mg oral, 12 h): 35 pg/mL
- Serum Calcitonin ([1]; 240 mg oral, 24 h): 8.3 pg/mL
- Serum Ionized Calcium ([1]; 240 mg oral, 24 h): 1.23 mM
- Serum PTH ([1]; 240 mg oral, 24 h): 34 pg/mL
- Serum Calcitonin ([1]; 400 mg oral, 0 h): 3.4 pg/mL
- Serum Ionized Calcium ([1]; 400 mg oral, 0 h): 1.24 mM
- Serum PTH ([1]; 400 mg oral, 0 h): 33 pg/mL
- Serum Calcitonin ([1]; 400 mg oral, 0.5 h): 4.0 pg/mL
- Serum Ionized Calcium ([1]; 400 mg oral, 0.5 h): 1.26 mM
- Serum PTH ([1]; 400 mg oral, 0.5 h): 13 pg/mL
- Serum Calcitonin ([1]; 400 mg oral, 1 h): 6.0 pg/mL
- Serum Ionized Calcium ([1]; 400 mg oral, 1 h): 1.25 mM
- Serum PTH ([1]; 400 mg oral, 1 h): 9 pg/mL
- Serum Calcitonin ([1]; 400 mg oral, 2 h): 7.1 pg/mL
- Serum Ionized Calcium ([1]; 400 mg oral, 2 h): 1.22 mM
- Serum PTH ([1]; 400 mg oral, 2 h): 8 pg/mL
- Serum Calcitonin ([1]; 400 mg oral, 4 h): 5.2 pg/mL
- Serum Ionized Calcium ([1]; 400 mg oral, 4 h): 1.19 mM
- Serum PTH ([1]; 400 mg oral, 4 h): 11 pg/mL
- Serum Calcitonin ([1]; 400 mg oral, 8 h): 3.8 pg/mL
- Serum Ionized Calcium ([1]; 400 mg oral, 8 h): 1.13 mM
- Serum PTH ([1]; 400 mg oral, 8 h): 20 pg/mL
- Serum Calcitonin ([1]; 400 mg oral, 12 h): 3.7 pg/mL
- Serum Ionized Calcium ([1]; 400 mg oral, 12 h): 1.15 mM
- Serum PTH ([1]; 400 mg oral, 12 h): 31 pg/mL
- Serum Calcitonin ([1]; 400 mg oral, 24 h): 3.0 pg/mL
- Serum Ionized Calcium ([1]; 400 mg oral, 24 h): 1.22 mM
- Serum PTH ([1]; 400 mg oral, 24 h): 31 pg/mL
- effect on serum ionized calcium (summary) ([1]; human, higher oral doses): decrease in serum ionized calcium concentration
- effect on plasma PTH (summary) ([1]; human, oral): transient dose-dependent decrease in plasma PTH concentration
- effect on serum calcitonin (summary) ([1]; human, oral): no apparent change in serum calcitonin
- hypocalcemic response in thyroidectomized animals [2]: hypocalcemic response equal in magnitude to that produced in sham-operated animals

Structure (SMILES): NC[C@@H]1O[C@H](O[C@H]2[C@@H](O)[C@H](O[C@@H]3[C@@H](O)[C@H](N)C[C@H](N)[C@H]3O[C@H]3O[C@H](CN)[C@@H](O)[C@H](O)[C@H]3N)O[C@@H]2CO)[C@H](N)[C@@H](O)[C@@H]1O [Neomycin]
- inhibition of PTH secretion (human parathyroid cells): inhibited PTH secretion from human parathyroid cells
- increase in [Ca^2+]i ([3]; 20 μM): large increase in [Ca^2+ ]i
- increases in [Ca^2+]i ([3]; human adenoma cells): not only a transient, but additionally a steady-state increase in [Ca^2+ ]i
- EC50 ([3]; human parathyroid cells): 20 µM
